Reference: patent US6492419B1, “Aqueous insecticidal pour-on formulation” (Schering-Plough Animal Health Corp., priority 1997, dated 2002)

What was measured:
Assay type in all cases: in vivo
[1] = system: Bovicola ovis (Schrank), sheep body louse; test: Pen trial of diflubenzuron pour-on against sheep lice (Examples 2-4); details: for % Lice reduction: corrected lice counts
Description: Order—Phthiraptera, Sub Order—Mallophaga, Family—Trichodectidae, Genus—Damalinia (Bovicola, Trichodectes), Species—Bovicola ovis (Schrank) and Common name—Sheep body louse.
The sheep used in this study were a uniform line of Merino wethers heavily infected with lice.
The method requires examination of twenty partings each 10 cm long, along two contours on the left and right sides covering the wool growing regions of the animal. At each of the 40 recorded sites all live adult lice are counted. Site counts are summed to give a total count for the animal.
Within 24 hours of shearing, treatments were applied as a single stripe along the backline of the sheep. The dose rate applied was based on 20 mL of treatment per animal which is based on all test animals being in the 30.1-55 kg weight range.
The delivery apparatus for each formulation was a commercial applicator, set to deliver 1×20 mL doses to the sheep backline. The gun was calibrated using a volumetric cylinder and checked twice before and once after treatment.
To avoid the possibility of rain complicating the post treatment situation the sheep were kept in pens for a minimum of 48 hours. Then on the morning of the 25 th day of the trial, they were placed into their paddocks. […]

[2] = Tissue residues after aqueous pour-on, cattle; details: 15 mg/kg pour-on, LOQ = 0.02 mg/kg
Experimental: (§1) Tissue residue studies were carried out following application of the aqueous pour-on to both sheep and cattle (Reference is made to page 1, lines 34 and 35 where it is mentioned that treatment with non aqueous pour-on formulations can lead to high tissue residues in animals treated with these formulations.)

sheep lice = test: Field efficacy (control of sheep lice); details: 25 g/L; for Pre treatment mean lice count: baseline
[3] = Tissue residues after aqueous pour-on, sheep; details: 20 mg/kg pour-on, LOQ = 0.02 mg/kg
Experimental: as §1

O=C(NC(=O)c1c(F)cccc1F)Nc1ccc(Cl)cc1 [Diflubenzuron, diflubenzuron]
lice killed ([1]; 12.5 and 25.0 g/L, 20 ml dose along the backline of sheep, within 10 weeks of application): 95%
lice kills ([1]; 12.5 and 25.0 g/L, 20 ml dose along the backline of sheep, within 20 weeks): 100%
% Lice reduction ([1]; 12.5 g/L pour-on, sheep, after 2 weeks): 91.0%
% Lice reduction ([1]; 12.5 g/L pour-on, sheep, after 5 weeks): 94.9%
% Lice reduction ([1]; 12.5 g/L pour-on, sheep, after 10 weeks): 98.9%
% Lice reduction ([1]; 12.5 g/L pour-on, sheep, after 15 weeks): 100.0%
% Lice reduction ([1]; 12.5 g/L pour-on, sheep, after 20 weeks): 100.0%
Mean Lice Counts ([1]; 12.5 g/L, 20 mL backline (250 mg per sheep), 5 Merino wethers, week 0 (baseline)): 161.8
Mean Lice Counts ([1]; 12.5 g/L, 20 mL backline, sheep, 2 weeks after treatment): 6.8
Mean Lice Counts ([1]; 12.5 g/L, 20 mL backline, sheep, 5 weeks after treatment): 1.8
Mean Lice Counts ([1]; 12.5 g/L, 20 mL backline, sheep, 10 weeks after treatment): 0.4
Mean Lice Counts ([1]; 12.5 g/L, 20 mL backline, sheep, 15 weeks after treatment): 0.0
Mean Lice Counts ([1]; 12.5 g/L, 20 mL backline, sheep, 20 weeks after treatment): 0.0
% Lice reduction ([1]; 25.0 g/L pour-on, sheep, after 2 weeks): 69.6%
% Lice reduction ([1]; 25.0 g/L pour-on, sheep, after 5 weeks): 83.4%
% Lice reduction ([1]; 25.0 g/L pour-on, sheep, after 10 weeks): 94.8%
% Lice reduction ([1]; 25.0 g/L pour-on, sheep, after 15 weeks): 96.4%
% Lice reduction ([1]; 25.0 g/L pour-on, sheep, after 20 weeks): 100.0%
Mean Lice Counts ([1]; 25.0 g/L, 20 mL backline (500 mg per sheep), 5 Merino wethers, week 0 (baseline)): 120.6
Mean Lice Counts ([1]; 25.0 g/L, 20 mL backline, sheep, 2 weeks after treatment): 17.2
Mean Lice Counts ([1]; 25.0 g/L, 20 mL backline, sheep, 5 weeks after treatment): 4.4
Mean Lice Counts ([1]; 25.0 g/L, 20 mL backline, sheep, 10 weeks after treatment): 1.4
Mean Lice Counts ([1]; 25.0 g/L, 20 mL backline, sheep, 15 weeks after treatment): 1.0
Mean Lice Counts ([1]; 25.0 g/L, 20 mL backline, sheep, 20 weeks after treatment): 0.0
Level of diflubenzuron residues in fat tissues, Inguinal fat ([2]; 1 day post treatment): <LOQ
Level of diflubenzuron residues in fat tissues, Inguinal fat ([2]; 3 days post treatment): <LOQ
Level of diflubenzuron residues in fat tissues, Inguinal fat ([2]; 7 days post treatment): <LOQ
Level of diflubenzuron residues in fat tissues, Peri-renal fat ([2]; 7 days post treatment): <LOQ
Level of diflubenzuron residues in fat tissues, Inguinal fat ([2]; 14 days post treatment): <LOQ
Level of diflubenzuron residues in fat tissues, Peri-renal fat ([2]; 14 days post treatment): <LOQ
concentration at 1 day ([2]; bovine, peri-renal fat, topical, 1 day post treatment, read-out: Level of diflubenzuron residues in fat tissues, Peri-renal fat): 170 ng/g
concentration at 3 days ([2]; bovine, peri-renal fat, topical, 3 days post treatment, read-out: Level of diflubenzuron residues in fat tissues, Peri-renal fat): 90 ng/g
% Lice reduction (sheep lice; Trial 1, Uraila, N.S.W., 1309 fine wool merinos, after 6 weeks): 98.1%
% Lice reduction (sheep lice; Trial 1, Uraila, N.S.W., 1309 fine wool merinos, after 12 weeks): 98.7%
% Lice reduction (sheep lice; Trial 1, Uraila, N.S.W., 1309 fine wool merinos, after 20 weeks): 100%
Pre treatment mean lice count (sheep lice; Trial 1, Uraila, N.S.W., 1309 fine wool merinos): 156
% Lice reduction (sheep lice; Trial 2, Guyra, N.S.W., 2000 super fine wool, after 6 weeks): 100%
% Lice reduction (sheep lice; Trial 2, Guyra, N.S.W., 2000 super fine wool, after 12 weeks): 100%
% Lice reduction (sheep lice; Trial 2, Guyra, N.S.W., 2000 super fine wool, after 20 weeks): 100%
Pre treatment mean lice count (sheep lice; Trial 2, Guyra, N.S.W., 2000 super fine wool): 41
% Lice reduction (sheep lice; Trial 3, Crookwell, N.S.W., 680 medium fine wool merinos, after 6 weeks): 91.3%
% Lice reduction (sheep lice; Trial 3, Crookwell, N.S.W., 680 medium fine wool merinos, after 12 weeks): 99.6%
% Lice reduction (sheep lice; Trial 3, Crookwell, N.S.W., 680 medium fine wool merinos, after 20 weeks): 100%
Pre treatment mean lice count (sheep lice; Trial 3, Crookwell, N.S.W., 680 medium fine wool merinos): 242
% Lice reduction (sheep lice; Trial 4, Lucindale, N.S.W, 1094 strong wool merinos, after 6 weeks): 99.8%
% Lice reduction (sheep lice; Trial 4, Lucindale, N.S.W, 1094 strong wool merinos, after 12 weeks): 100%
% Lice reduction (sheep lice; Trial 4, Lucindale, N.S.W, 1094 strong wool merinos, after 20 weeks): 100%
Pre treatment mean lice count (sheep lice; Trial 4, Lucindale, N.S.W, 1094 strong wool merinos): 35
% Lice reduction (sheep lice; Trial 5, Coonalpyn, S.A., 1101 strong wool merinos, after 6 weeks): 99.6%
% Lice reduction (sheep lice; Trial 5, Coonalpyn, S.A., 1101 strong wool merinos, after 12 weeks): 100%
% Lice reduction (sheep lice; Trial 5, Coonalpyn, S.A., 1101 strong wool merinos, after 20 weeks): 100%
Pre treatment mean lice count (sheep lice; Trial 5, Coonalpyn, S.A., 1101 strong wool merinos): 142
% Lice reduction (sheep lice; Trial 6, Lismore, Vic, 812 super fine merinos, after 6 weeks): 99.5%
% Lice reduction (sheep lice; Trial 6, Lismore, Vic, 812 super fine merinos, after 12 weeks): 100%
% Lice reduction (sheep lice; Trial 6, Lismore, Vic, 812 super fine merinos, after 20 weeks): 100%
Pre treatment mean lice count (sheep lice; Trial 6, Lismore, Vic, 812 super fine merinos): 51
Level of diflubenzuron residues in tissues, Kidney ([3]; 1 day post treatment): <LOQ
Level of diflubenzuron residues in tissues, Liver ([3]; 1 day post treatment): <LOQ
Level of diflubenzuron residues in tissues, Muscle ([3]; 1 day post treatment): <LOQ
Level of diflubenzuron residues in tissues, Inguinal fat ([3]; 1 day post treatment, max): ≤ 0.02 max mg/kg
Level of diflubenzuron residues in tissues, peri-renal fat ([3]; 1 day post treatment, max): ≤ 0.03 max mg/kg
Level of diflubenzuron residues in tissues, Kidney ([3]; 3 days post treatment): <LOQ
Level of diflubenzuron residues in tissues, Liver ([3]; 3 days post treatment): <LOQ
Level of diflubenzuron residues in tissues, Muscle ([3]; 3 days post treatment): <LOQ
Level of diflubenzuron residues in tissues, Inguinal fat ([3]; 3 days post treatment, max): ≤ 0.04 max mg/kg
Level of diflubenzuron residues in tissues, peri-renal fat ([3]; 3 days post treatment, max): ≤ 0.02 max mg/kg
Level of diflubenzuron residues in tissues, Kidney ([3]; 7 days post treatment): <LOQ
Level of diflubenzuron residues in tissues, Liver ([3]; 7 days post treatment): <LOQ
Level of diflubenzuron residues in tissues, Muscle ([3]; 7 days post treatment): <LOQ
Level of diflubenzuron residues in tissues, Inguinal fat ([3]; 7 days post treatment, max): ≤ 0.03 max mg/kg
Level of diflubenzuron residues in tissues, peri-renal fat ([3]; 7 days post treatment, max): ≤ 0.02 max mg/kg
Level of diflubenzuron residues in tissues, Kidney ([3]; 14 days post treatment): <LOQ
Level of diflubenzuron residues in tissues, Liver ([3]; 14 days post treatment): <LOQ
Level of diflubenzuron residues in tissues, Muscle ([3]; 14 days post treatment): <LOQ
Level of diflubenzuron residues in tissues, peri-renal fat ([3]; 14 days post treatment): <LOQ
Level of diflubenzuron residues in tissues, Inguinal fat ([3]; 14 days post treatment, max): ≤ 0.02 max mg/kg
Level of diflubenzuron residues in tissues, Kidney ([3]; 21 days post treatment): <LOQ
Level of diflubenzuron residues in tissues, Liver ([3]; 21 days post treatment): <LOQ
Level of diflubenzuron residues in tissues, Muscle ([3]; 21 days post treatment): <LOQ
Level of diflubenzuron residues in tissues, peri-renal fat ([3]; 21 days post treatment): <LOQ
Level of diflubenzuron residues in tissues, Inguinal fat ([3]; 21 days post treatment, max): ≤ 0.05 max mg/kg
Level of diflubenzuron residues in tissues, Inguinal fat ([3]; 42 days post treatment): <LOQ
Level of diflubenzuron residues in tissues, Kidney ([3]; 42 days post treatment): <LOQ
Level of diflubenzuron residues in tissues, Liver ([3]; 42 days post treatment): <LOQ
Level of diflubenzuron residues in tissues, Muscle ([3]; 42 days post treatment): <LOQ
Level of diflubenzuron residues in tissues, peri-renal fat ([3]; 42 days post treatment): <LOQ
